Patent US20040209906A1, “Composition comprising ketanserin AND AN ALKANOYL L-CARNITINE FOR THE TREATMENT OF CRPS” (Sigma-Tau industrie Farmaceutiche Riunite S.p.A., priority 1998, published 2004)

Assays:
[1] = test system: CRPS; conditions: in vivo; cited from earlier work
[2] = test system: CRPS patients; assay: intravenous ketanserin treatment of CRPS patients (bolus plus infusion); type: in vivo
Procedure: All i.v. treatments were performed after at least 15 minutes of acclimatisation at constant temperature (20-23° C.). The temperature of the affected limb was recorded with Hewlett Packard electro-skin probe between digit 4 and 5. In addition continues photoplethysmograpy of the affected hand (digit 2) or foot (digit 1), blood pressure and hearth rate were recorded. All patients received a bolus of 10 mg of ketanserin i.v. in a running saline infusion. Ketanserin administration was continued by rate of 4 mg per hour.

[3] = test system: CRPS; conditions: ketanserin alone; cited from earlier work
[4] = after the intravenous treatment with ketanserin

SMILES	efficacy of therapeutic treatment in CRPS [1]	therapeutic result for symptoms caused by hyperpathia and allodinia [1]	skin temperature [2, 4]	symptom of small vein [2, 4]	peripheral circulation of the affected limb ([2]; all patients, after the intravenous treatment with ketanserin (10 mg bolus, then 4 mg per hour))	treatment of CRPS symptoms [3]
C[S+](C)[O-] [dimethyl sulfoxide]	efficacious only during acute CRPS	without any therapeutic result				
O=C(c1ccc(F)cc1)C1CCN(CCn2c(=O)[nH]c3ccccc3c2=O)CC1 [ketanserin]			normalised	disappeared	normalised	possible to treat most of symptoms, but not those caused by hyperpathia and allodinia
